From patent US20220202822A1, “8-SUBSTITUTED ARYL VINYL XANTHINE DERIVATIVES AND USES THEREOF” (SUNSHINE LAKE PHARMA CO., LTD., priority 2019, published 2022)

How the values were obtained:
[1] = molecular target: T1, human adenosine A2A receptor (Homo sapiens, UniProt P29274); test: Antagonizing effect on human adenosine A2A receptor (cAMP, TR-FRET, NECA-stimulated HEK-293 cells); type: cell-based; settings: inhibition of cAMP produced by NECA (3 nM), HEK-293 cells expressing human recombinant A2A receptor
T1 construct: expressed in transfected cells; host or cells: HEK-293
Protocol: The experimental system uses human recombinant adenosine A2A receptor, which is stably expressed in HEK-293 cell line. HEK-293 cells were inoculated into culture plate at a density of 1.25×10^5 cells /mL. The medium was changed by modified HBSS solution with pH 7.4, different concentrations of test compounds (10 μM, 1 μM, 0.1 μM, 10 nM, 1 nM, 0.1 nM) and solvents (PBS with 0.1% DMSO) were added, and the plate was incubated at 37° C. for 10 min. cAMP (cyclic adenosine monophosphate) concentration in culture medium was detected by TR-FRET method. NECA was used as a positive control in this experiment, (1) test compounds alone were used to stimulate cells to produce a certain amount of cAMP, and then NECA (0.1 μM) alone was used to stimulate cells to produce a certain amount of cAMP. A test compound is considered to have agonistic activity on adenosine A2A receptor if the test compound alone stimulates cells to produce cAMP more than 50% of the amount of cAMP produced by NECA (0.1 μM) alone. (2) All cells were first incubated with test compounds and then stimulated with NECA (3 nM). In addition, NECA (3 nM) alone was used to stimulate cells to produce a certain amount of cAMP. […] IC50 was calculated using MathIQ™ (ID Business Solutions Ltd., UK) through nonlinear, least squares regression equation analysis.

[2] = Pharmacokinetic evaluation in rats after intravenous or intragastric administration; type: in vivo, SD rats; settings: for AUC(0-inf) / AUC(0-t) / Cmax / MRT inf / Tmax / clearance / half-life: SD, rat, plasma
Protocol: The LC-MS/MS system for analysis includes the Agilent 1200 series vacuum degasser, a quaternary pump, an orifice plate sampler, a thermostatted column oven, and an API4000Qtrap triple quadrupole mass spectrometer with an electrospray ionization source (ESI).
Waters ACQUITY UPLC CSH C18, 2.1×50 mm, 1.7 μm column was used for analysis, and 0.8 μL of sample was injected. Analytical conditions: mobile phase was H2O+2 mM HCOONH4 (ammonium formate)+0.1% FA (formic acid) (mobile phase A) and MeOH (methanol)+2 mM HCOONH4 (ammonium formate)+0.1% FA (formic acid) (mobile phase B). Flow rate was 0.7 mL/min.
The experiment was divided into two groups: one was administered by intravenous injection, and the other was administered by intragastric administration. The compound of the present invention was administered to a test animal (overnight fast for 12 hours) in the form of 10% DMA (heating)+60% PEG400+30% saline solution. For the group of intravenous administration, the administration dose was 1 mg/kg, and vein blood samples (0.3 mL) were collected at the time points of 0.083, 0.25, 0.5, 1.0, 2.0, 5.0, 7.0 and 24 h after administration. EDTA-K2 as anticoagulant was added into the blood vessel. The plasma solutions were collected by centrifuging each blood sample at 3,000 rpm or 4,000 rpm for 10 minutes and kept at −20° C. or −70° C. For the group of intragastric administration, the administration dose was 5 mg/kg, and vein blood samples (0.3 mL) were collected at the time points of 0.25, 0.5, 1.0, 2.0, 5.0, 7.0 and 24 h after administration. EDTA-K2 as anticoagulant was added into the blood vessel. The plasma solutions were collected by centrifuging each blood sample at 3,000 rpm or 4,000 rpm for 10 minutes and kept at −20° C. or −70° C.
20 μL of plasma was taken, 120 μL of IS working solution was added to the plasma, and the plasma mixture was vortexed for 2 min. The mixed solution was then centrifuged at 12,000 rpm for 2 min. 100 μL of the supernatant was taken, 110 μL of MeOH/H2O (v/v=1/1) was added, and the solution was vortexed for 2 minutes, then 5 μL was taken for inj ection into the LC-MS/MS system.

[3] = Pharmacokinetic evaluation in beagles after intravenous or intragastric administration; type: in vivo, beagle
Protocol: The LC/MS/MS system for analysis includes the Agilent 1200 series vacuum degasser, a quaternary pump, an orifice plate sampler, a thermostatted column oven, and an API4000Qtrap triple quadrupole mass spectrometer with an electrospray ionization source (ESI).
Waters xbridge C18, 2.1×50 mm, 3.5 μm column was used for analysis, and 0.5 μL of sample was injected. Analytical conditions: mobile phase consisting of mobile phase A (H2O+2 mM HCOONH4 (ammonium formate) +0.1% FA (formic acid)) and mobile phase B (MeOH (methanol)+2 mM HCOONH4 (ammonium formate)+0.1% FA (formic acid)). Flow rate was 0.7 mL/min.
The experiment was divided into two groups: one was administered by intravenous injection, and the other was administered by intragastric administration. The compound of the present invention was administered to a test animal in the form of 10% DMA (heating)+60% PEG400+30% saline solution. For the group of intravenous administration, the administration dose was 1 mg/kg, and vein blood samples (0.3 mL) were collected at the time points of 0.083, 0.25, 0.5, 1.0, 2.0, 4.0, 6.0, 8.0 and 24 h after administration. The plasma solutions were collected (EDTA-K2 as anticoagulant) by centrifuging each blood sample at 3,000 rpm or 4,000 rpm for 10 minutes and then kept at −20° C. or −70° C. For the group of intragastric administration, the administration dose was 5 mg/kg, and vein blood samples (0.3 mL) were collected at the time points of 0.25, 0.5, 1.0, 2.0, 5.0, 7.0 and 24 h after administration. The plasma solutions were collected (EDTA-K2 as anticoagulant) by centrifuging each blood sample at 3,000 rpm or 4,000 rpm for 10 minutes and then kept at −20° C. or −70° C.
10 μL of plasma was taken, 120 μL of IS working solution was added to the plasma, and the plasma mixture was vortexed for 2 min. The mixed solution was then centrifuged at 12,000 rpm for 2 min. 80 μL of the supernatant was taken, 140 μL of methanol/H2O (v/v =1/1) was added, and the solution was vortexed for 2 minutes, then 1.0 μL was taken for injection into the LC-MS/MS system. LC-MS/MS method was used to detect the concentration of target compounds, and non-compartment model was used to calculate pharmacokinetic parameters, and the results were shown in table C.

[4] = po, intragastric administration, 5 mg/kg
[5] = intragastric administration, 5 mg/kg
[6] = beagle, dog, plasma, intravenous injection, 1 mg/kg
[7] = beagle, dog, plasma, po, intragastric administration, 5 mg/kg

T1 sequence (P29274 whole entry): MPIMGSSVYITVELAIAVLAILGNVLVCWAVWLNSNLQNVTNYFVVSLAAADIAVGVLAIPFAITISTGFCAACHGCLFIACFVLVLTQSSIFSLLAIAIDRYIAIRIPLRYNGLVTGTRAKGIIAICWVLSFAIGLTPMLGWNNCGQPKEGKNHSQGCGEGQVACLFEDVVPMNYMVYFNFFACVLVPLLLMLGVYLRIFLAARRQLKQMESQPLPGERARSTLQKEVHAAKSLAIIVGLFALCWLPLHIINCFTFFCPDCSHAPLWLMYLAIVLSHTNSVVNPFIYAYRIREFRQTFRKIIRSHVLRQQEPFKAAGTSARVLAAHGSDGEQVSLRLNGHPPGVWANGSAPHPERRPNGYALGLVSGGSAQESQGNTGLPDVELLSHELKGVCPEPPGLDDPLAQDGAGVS

IC50 [1] [µM]	AUC(0-inf) ([2]; intravenous injection, 1 mg/kg) [ng·h/mL]	AUC(0-t) ([2]; intravenous injection, 1 mg/kg) [ng·h/mL]	Cmax ([2]; intravenous injection, 1 mg/kg) [ng/mL]	MRT inf ([2]; intravenous injection, 1 mg/kg) [h]	Tmax ([2]; intravenous injection, 1 mg/kg) [h]	clearance ([2]; intravenous injection, 1 mg/kg) [mL/min/kg]	half-life ([2]; intravenous injection, 1 mg/kg) [h]	AUC(0-inf) [2, 4] [ng·h/mL]	AUC(0-t) [2, 4] [ng·h/mL]	Cmax [2, 4] [ng/mL]	MRT inf [2, 4] [h]	Tmax [2, 4] [h]	half-life [2, 4] [h]	F [2, 5] [%]	Vss ([2]; intravenous injection, 1 mg/kg) [kg⁻¹]	SMILES	also measured
2.51	4360	4340	879	4.26	0.083	3.82	3.35	32300	32100	3660	5.2	1.67	3.39	148.2	0.977	CCn1c(=O)c2c(nc(/C=C/c3ccc(OC4CCS(=O)(=O)CC4)cc3)n2C)n(CC)c1=O [Example 1, (E)-8-(4-((1,1-dioxidotetrahydro-2H-thiopyran-4-yl)oxy)styryl)-1,3-diethyl-7-methyl-1H-purine-2,6(3H,7H)-dione]	AUC(0-inf) [3, 6]: 56300 ng·h/mL; AUC(0-t) [3, 6]: 25400 ng·h/mL; Cmax [3, 6]: 1870 ng/mL; MRT inf [3, 6]: 41.5 h; Tmax [3, 6]: 1 h; clearance [3, 6]: 0.296 mL/min/kg; half-life [3, 6]: 30.5 h; AUC(0-inf) [3, 7]: 114000 ng·h/mL; AUC(0-t) [3, 7]: 40300 ng·h/mL; Cmax [3, 7]: 2530 ng/mL; MRT inf [3, 7]: 54 h; Tmax [3, 7]: 4.67 h; half-life [3, 7]: 36.9 h; F [3, 5]: 38.7%; Vss ([3]; intravenous injection, 1 mg/kg): 0.737 kg⁻¹
3.25	4230	4180	985	4.35	0.083	3.94	4	24400	23700	3110	5.94	1.67	4.77	110.2	1.03	CCn1c(=O)c2c(nc(/C=C/c3ccc(OC4CCS(=O)(=O)CC4)c(F)c3)n2C)n(CC)c1=O [Example 2, (E)-8-(4-((1,1-dioxidotetrahydro-2H-thiopyran-4-yl)oxy)-3-fluorostyryl)-1,3-diethyl-7-methyl-1H-purine-2,6(3H,7H)-dione]	–
2.99	–	–	–	–	–	–	–	–	–	–	–	–	–	–	–	CCn1c(=O)c2c(nc(/C=C/c3ccc(OC4CCS(=O)(=O)CC4)nc3)n2C)n(CC)c1=O [Example 4, (E)-8-(2-(6-((1,1-dioxidotetrahydro-2H-thiopyran-4-yl)oxy)pyridin-3-yl)vinyl)-1,3-diethyl-7-methyl-1H-purine-2,6(3H,7H)-dione]	–
1.48	–	–	–	–	–	–	–	–	–	–	–	–	–	–	–	CCn1c(=O)c2c(nc(/C=C/c3ccc(OC4CCC(F)(F)CC4)cc3)n2C)n(CC)c1=O [Example 6, (E)-8-(4-((4,4-difluorocyclohexyl)oxy)styryl)-1,3-diethyl-7-methyl-1H-purine-2,6(3H,7H)-dione]	–
